Source: article PMC9774391 (ACS Omega, 2022)

How the values were obtained:
[1] = target: T1, MAO-B (Homo sapiens, UniProt P27338); test: In vitro MAO-B inhibition assay (fluorometric); format: biochemical; conditions: for inhibition at 1000 µM: 10^–3 M; for inhibition at 100 µM: 10^–4 M; for inhibition at 10 µM: 10^–5 M; for inhibition at 1 µM: 10^–6 M; for inhibition at 0.1 µM: 10^–7 M; for inhibition at 0.01 µM: 10^–8 M; for inhibition at 0.001 µM: 10^–9 M
T1 sequence (P27338 1-520): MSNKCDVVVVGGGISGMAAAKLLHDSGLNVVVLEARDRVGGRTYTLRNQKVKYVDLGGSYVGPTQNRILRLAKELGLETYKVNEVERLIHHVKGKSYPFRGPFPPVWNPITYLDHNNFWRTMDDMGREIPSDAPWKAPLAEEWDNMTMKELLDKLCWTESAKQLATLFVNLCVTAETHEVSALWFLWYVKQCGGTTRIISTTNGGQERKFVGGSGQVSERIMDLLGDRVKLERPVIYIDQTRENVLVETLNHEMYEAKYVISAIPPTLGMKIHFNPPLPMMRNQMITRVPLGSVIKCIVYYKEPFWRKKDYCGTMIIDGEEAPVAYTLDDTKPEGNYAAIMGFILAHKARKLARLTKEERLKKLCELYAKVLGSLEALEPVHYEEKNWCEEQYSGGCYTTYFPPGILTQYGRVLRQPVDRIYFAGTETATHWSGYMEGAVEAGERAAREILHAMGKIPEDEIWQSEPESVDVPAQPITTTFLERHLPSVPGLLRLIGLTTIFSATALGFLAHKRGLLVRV

[2] = Cytotoxicity test (MTT); format: cell-based; conditions: NIH/3T3 mouse embryonic fibroblast cells (ATCC CRL-1658), NIH/3T3 mouse fibroblast healthy cell line
Experimental: The NIH/3T3 cells were incubated according to the manufacturer’s recommendations. In 96-well plates, NIH/3T3 cells were seeded at a density of 1 × 10^4 cells per well. The MTT test was conducted in line with the previously mentioned standards.[19],[22],[23],[28],[30]

[3] = target: T2, MAO-A (Homo sapiens, UniProt P21397); test: In vitro MAO-A inhibition assay (fluorometric); format: biochemical; conditions: for inhibition at 1000 µM: 10^–3 M; for inhibition at 100 µM: 10^–4 M
T2 sequence (P21397 1-527): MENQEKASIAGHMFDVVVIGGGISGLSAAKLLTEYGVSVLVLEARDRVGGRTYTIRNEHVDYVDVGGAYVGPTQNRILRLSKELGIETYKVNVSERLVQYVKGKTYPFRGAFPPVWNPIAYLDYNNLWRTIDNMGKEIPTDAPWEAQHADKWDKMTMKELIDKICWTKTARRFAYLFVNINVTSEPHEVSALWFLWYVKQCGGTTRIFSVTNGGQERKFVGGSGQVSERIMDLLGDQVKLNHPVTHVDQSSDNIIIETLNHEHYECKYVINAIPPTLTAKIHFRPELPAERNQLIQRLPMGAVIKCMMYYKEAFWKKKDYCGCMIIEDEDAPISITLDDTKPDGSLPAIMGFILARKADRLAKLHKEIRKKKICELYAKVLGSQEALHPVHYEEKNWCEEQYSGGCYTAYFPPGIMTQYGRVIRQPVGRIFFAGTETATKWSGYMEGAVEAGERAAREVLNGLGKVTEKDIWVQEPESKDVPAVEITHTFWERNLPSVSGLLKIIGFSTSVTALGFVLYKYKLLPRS

[4] = target: BChE (Homo sapiens, UniProt P06276); test: biochemical; conditions: for inhibition at 1000 µM: 10^–3 M; for inhibition at 100 µM: 10^–4 M
Experimental: (§1) According to the modified Ellman approach outlined in our team’s earlier work, the AChE and BChE inhibitory activities of the obtained compounds were evaluated.[18]−[21]

[5] = target: AChE (Homo sapiens, UniProt P22303); test: biochemical; conditions: for inhibition at 1000 µM: 10^–3 M; for inhibition at 100 µM: 10^–4 M; for inhibition at 10 µM: 10^–5 M; for inhibition at 1 µM: 10^–6 M; for inhibition at 0.1 µM: 10^–7 M; for inhibition at 0.01 µM: 10^–8 M; for inhibition at 0.001 µM: 10^–9 M
Experimental: as §1

[6] = target: T3, Beta Amyloid 1–42 (Aβ42) (Homo sapiens, UniProt P05067); test: Beta Amyloid 1–42 (Aβ42) inhibitor screening assay; format: biochemical; conditions: read-out: % β-amyloid plaque inhibition
T3 construct: The Beta Amyloid 1–42 (Aβ42) Ligand Screening Assay kit; purchased BioVision, Milpitas, CA
Text: The Beta Amyloid 1–42 (Aβ42) Ligand Screening Assay kit (BioVision, Milpitas, CA) technique based on the fluorometric approach served as the basis for the experimental process.[21],[28],[29]

Sequence of AChE (P22303 32-614): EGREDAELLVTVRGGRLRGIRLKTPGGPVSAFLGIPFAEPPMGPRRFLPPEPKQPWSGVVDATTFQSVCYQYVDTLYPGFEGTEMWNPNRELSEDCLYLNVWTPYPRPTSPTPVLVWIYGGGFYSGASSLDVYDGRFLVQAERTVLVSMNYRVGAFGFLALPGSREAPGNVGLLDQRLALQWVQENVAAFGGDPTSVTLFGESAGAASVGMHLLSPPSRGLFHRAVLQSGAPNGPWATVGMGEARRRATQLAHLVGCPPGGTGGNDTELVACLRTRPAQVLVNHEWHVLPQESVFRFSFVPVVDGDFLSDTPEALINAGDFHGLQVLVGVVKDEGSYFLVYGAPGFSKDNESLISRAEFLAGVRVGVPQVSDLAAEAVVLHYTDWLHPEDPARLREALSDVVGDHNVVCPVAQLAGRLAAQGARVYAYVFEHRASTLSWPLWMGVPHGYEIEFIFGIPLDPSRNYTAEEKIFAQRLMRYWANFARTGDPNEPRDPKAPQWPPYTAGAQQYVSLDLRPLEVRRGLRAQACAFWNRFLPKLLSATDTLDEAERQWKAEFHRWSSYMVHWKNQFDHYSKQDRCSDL
Sequence of BChE (P06276 29-602): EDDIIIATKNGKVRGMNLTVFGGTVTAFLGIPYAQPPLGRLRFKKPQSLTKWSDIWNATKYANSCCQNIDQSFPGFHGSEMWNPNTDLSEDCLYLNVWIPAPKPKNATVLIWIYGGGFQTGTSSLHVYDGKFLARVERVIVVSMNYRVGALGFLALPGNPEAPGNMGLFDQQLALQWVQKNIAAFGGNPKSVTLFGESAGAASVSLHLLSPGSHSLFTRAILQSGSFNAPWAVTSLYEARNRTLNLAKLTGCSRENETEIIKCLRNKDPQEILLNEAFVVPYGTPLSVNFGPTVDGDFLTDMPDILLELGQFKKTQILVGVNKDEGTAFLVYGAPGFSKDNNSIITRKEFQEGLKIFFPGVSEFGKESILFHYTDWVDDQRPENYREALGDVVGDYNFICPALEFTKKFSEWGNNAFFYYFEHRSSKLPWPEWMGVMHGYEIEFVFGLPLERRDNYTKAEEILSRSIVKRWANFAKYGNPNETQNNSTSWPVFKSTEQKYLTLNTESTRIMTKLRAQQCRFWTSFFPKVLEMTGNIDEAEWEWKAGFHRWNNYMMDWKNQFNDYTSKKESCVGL
T3 sequence (P05067 672-713 limits assumed): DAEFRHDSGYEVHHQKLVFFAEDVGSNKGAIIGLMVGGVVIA

COc1ccc2c(c1)C/C(=C\c1ccc(NC(=O)CN3CCN(CCCN(C)C)CC3)cc1)C2=O [D25]
inhibition at 1000 µM [1]: 79 ± 1.31% | inhibition at 100 µM [1]: 40.1 ± 0.63% | IC50 [2]: 13.8 ± 0.369 µM | inhibition at 1000 µM [3]: 80.38 ± 0.646% | inhibition at 100 µM [3]: 43.1 ± 0.646% | inhibition at 1000 µM [4]: 95.7 ± 2.13% | inhibition at 100 µM [4]: 32 ± 0.667% | IC50 [5]: 0.183 ± 0.0074 µM | inhibition at 1000 µM [5]: 92.6 ± 1.62% | inhibition at 100 µM [5]: 88.7 ± 1.19% | inhibition at 10 µM [5]: 71.1 ± 1.01% | inhibition at 1 µM [5]: 58.9 ± 0.952% | inhibition at 0.1 µM [5]: 43.2 ± 0.548% | inhibition at 0.01 µM [5]: 35.3 ± 0.417% | inhibition at 0.001 µM [5]: 23.4 ± 0.389%

COc1ccc2c(c1)C(=O)/C(=C/c1ccc(NC(=O)CN3CCN(CCCN(C)C)CC3)cc1)C2 [D26]
inhibition at 1000 µM [1]: 94.3 ± 0.997% | inhibition at 100 µM [1]: 41.3 ± 0.874% | IC50 [2]: 21.8 ± 0.556 µM | inhibition at 1000 µM [3]: 95.12 ± 0.828% | inhibition at 100 µM [3]: 44.3 ± 0.914% | inhibition at 1000 µM [4]: 56.2 ± 0.826% | inhibition at 100 µM [4]: 31.1 ± 0.415% | IC50 [5]: 0.176 ± 0.0062 µM | inhibition at 1000 µM [5]: 93.3 ± 1.5% | inhibition at 100 µM [5]: 80.5 ± 1.21% | inhibition at 10 µM [5]: 78.1 ± 1.02% | inhibition at 1 µM [5]: 60.6 ± 0.974% | inhibition at 0.1 µM [5]: 40.3 ± 0.598% | inhibition at 0.01 µM [5]: 35.6 ± 0.758% | inhibition at 0.001 µM [5]: 24.5 ± 0.622%

C#CCN(C)CC(=O)Nc1ccc(/C=C2\Cc3cc(OC)ccc3C2=O)cc1 [D31]
IC50 [1]: 0.0619 ± 0.0028 µM | inhibition at 1000 µM [1]: 93.6 ± 1.48% | inhibition at 100 µM [1]: 88.7 ± 1.36% | inhibition at 10 µM [1]: 81.5 ± 1.24% | inhibition at 1 µM [1]: 75.9 ± 1.06% | inhibition at 0.1 µM [1]: 61.9 ± 1.01% | inhibition at 0.01 µM [1]: 35.5 ± 0.485% | inhibition at 0.001 µM [1]: 18.8 ± 0.511% | IC50 [2]: 26 ± 1.28 µM | inhibition at 1000 µM [3]: 92.7 ± 1.31% | inhibition at 100 µM [3]: 23.9 ± 0.572% | inhibition at 1000 µM [4]: 98.8 ± 2.69% | inhibition at 100 µM [4]: 41.6 ± 0.988% | inhibition at 1000 µM [5]: 41.3 ± 0.966% | inhibition at 100 µM [5]: 27.1 ± 0.803%

C#CCN(C)CC(=O)Nc1ccc(/C=C2\Cc3ccc(OC)cc3C2=O)cc1 [D32]
IC50 [1]: 0.0665 ± 0.0024 µM | inhibition at 1000 µM [1]: 94.8 ± 1.42% | inhibition at 100 µM [1]: 89.6 ± 1.27% | inhibition at 10 µM [1]: 81.5 ± 1.8% | inhibition at 1 µM [1]: 72.7 ± 1.32% | inhibition at 0.1 µM [1]: 59.6 ± 0.977% | inhibition at 0.01 µM [1]: 34.2 ± 0.514% | inhibition at 0.001 µM [1]: 21.5 ± 0.429% | IC50 [2]: 282 ± 7.04 µM | inhibition at 1000 µM [3]: 76.7 ± 1.67% | inhibition at 100 µM [3]: 29.7 ± 0.752% | inhibition at 1000 µM [4]: 90.9 ± 1.29% | inhibition at 100 µM [4]: 24.7 ± 0.455% | inhibition at 1000 µM [5]: 33.8 ± 0.885% | inhibition at 100 µM [5]: 26.4 ± 0.565%

C#CCN(C)CC(=O)Nc1ccc(/C=C2\Cc3cc(OC)c(OC)cc3C2=O)cc1 [D33]
inhibition at 1000 µM [1]: 82.1 ± 1.19% | inhibition at 100 µM [1]: 39.3 ± 0.665% | inhibition at 1000 µM [3]: 84.3 ± 1.29% | inhibition at 100 µM [3]: 29.9 ± 0.552% | inhibition at 1000 µM [4]: 99 ± 1.75% | inhibition at 100 µM [4]: 46.6 ± 0.845% | inhibition at 1000 µM [5]: 52.4 ± 1.24% | inhibition at 100 µM [5]: 32 ± 0.462%

CCN(CC)CCN(CC)CC(=O)Nc1ccc(/C=C2\Cc3cc(OC)ccc3C2=O)cc1 [D40]
IC50 [1]: 0.203 ± 0.0098 µM | inhibition at 100 µM [1]: 88.8 ± 1.3% | inhibition at 10 µM [1]: 80.6 ± 1.48% | inhibition at 1 µM [1]: 65.2 ± 0.975% | inhibition at 0.1 µM [1]: 43.1 ± 0.662% | inhibition at 0.01 µM [1]: 25.7 ± 0.425% | inhibition at 0.001 µM [1]: 19.9 ± 0.365% | IC50 [2]: 6.87 ± 0.297 µM | inhibition at 1000 µM [3]: 84.3 ± 1.27% | inhibition at 100 µM [3]: 41.3 ± 0.577% | inhibition at 1000 µM [4]: 95.1 ± 1.24% | inhibition at 100 µM [4]: 44.3 ± 0.642% | inhibition at 1000 µM [5]: 81.3 ± 1.11% | inhibition at 100 µM [5]: 41.6 ± 0.995%

CCN(CC)CCN(CC)CC(=O)Nc1ccc(/C=C2\Cc3ccc(OC)cc3C2=O)cc1 [D41]
IC50 [1]: 0.209 ± 0.0095 µM | inhibition at 1000 µM [1]: 90.2 ± 1.36% | inhibition at 100 µM [1]: 81.8 ± 1.29% | inhibition at 10 µM [1]: 73.3 ± 1.42% | inhibition at 1 µM [1]: 65.4 ± 0.975% | inhibition at 0.1 µM [1]: 42.2 ± 0.563% | inhibition at 0.01 µM [1]: 32.7 ± 0.427% | inhibition at 0.001 µM [1]: 21.5 ± 0.385% | IC50 [2]: 5.89 ± 0.119 µM | inhibition at 1000 µM [3]: 82.8 ± 2.12% | inhibition at 100 µM [3]: 22.5 ± 0.622% | inhibition at 1000 µM [4]: 99.15 ± 0.704% | inhibition at 100 µM [4]: 46.3 ± 1.37% | inhibition at 1000 µM [5]: 81 ± 1.6% | inhibition at 100 µM [5]: 36.6 ± 0.399%

CCN(CC)CCN(CC)CC(=O)Nc1ccc(/C=C2\Cc3cc(OC)c(OC)cc3C2=O)cc1 [D42]
inhibition at 1000 µM [1]: 95.2 ± 1.62% | inhibition at 100 µM [1]: 40.2 ± 0.824% | inhibition at 1000 µM [3]: 97.71 ± 0.411% | inhibition at 100 µM [3]: 40.2 ± 0.736% | inhibition at 1000 µM [4]: 99.4 ± 1.29% | inhibition at 100 µM [4]: 45.91 ± 0.206% | inhibition at 1000 µM [5]: 99.8 ± 2.01% | inhibition at 100 µM [5]: 44.2 ± 0.71%

COc1cc(/C=C/C(=O)CC(=O)/C=C/c2ccc(O)c(OC)c2)ccc1O [curcumin, reference compound]
inhibition at 1000 µM ([6]; 10^–3 M): 95.9 ± 1.97% | inhibition at 100 µM ([6]; 10^–4 M): 88.2 ± 2.17%
